Measured values from patent US6846842B2, “Pyruvate ester composition and method of use for resuscitation after events of ischemia and reperfusion” (Beth Israel Deconess Medical Center, Inc., priority 1999, dated 2005).

Legend:
[1] = test system: ischemia/reperfusion mucosal injury, small intestine; assay: Rat model of superior mesenteric artery occlusion (ischemia/reperfusion mucosal injury and barrier dysfunction); type: in vivo, male Sprague-Dawley rats; details: for mucosal thickness (MT) / villous height (VH): 28 mM infusate, mean ± SEM, n=6; for mucosal permeability (FITC-dextran, everted gut sac): during reperfusion
Experimental: The model system and calculation parameters are illustrated in FIG. 3.
Heart rate and mean arterial blood pressure were measured via a right carotid arterial catheter. The left internal jugular vein was cannulated for intravenous infusions.
Controls (n=6) received lactated Ringer's solution (lactate, […], 111.5 ml/kg/hr infusion, 1.5 ml/kg bolus prior to ischemia, and a 3.0 ml/kg bolus prior to reperfusion). Experimental groups (n=6 each) received similar volumes (3 ml) of either pyruvate, Na salt (28 mM) or pyruvate ethyl ester (28 mM), prepared in accordance with the method of this invention as shown in Table 2 and at a dosage rate equivalent to 10 mg/kg/hr. Small intestinal mucosal-to-serosal permeability (CMS, nl/min/cm^2) of FITC- dextran (mw=4 kDA) was evaluated using an everted gut sac technique as previously described by Wattanasirichaigoon (1999). Permeability was measured at baseline, after 30 and 60 minutes of ischemia ([…]) respectively, and after 30 and 60 minutes of reperfusion (R30 and R60, respectively). Histologic samples at baseline, 160 and R60 were evaluated for villous height (VH, μ) and mucosal thickness (MT, μ). Mucosal injury grade was determined according to the method described by Chiu et al. (1970), scored as in Table 3, as follows:
Data were summarized as means±standard error of the mean. Significances of differences were determined using Student's t-test. Differences were considered significant for p<0.05.

[2] = Stability and enolization of pyruvate esters in Ringer's solution (NMR, ultraviolet absorption); type: physicochemical; details: for absorbance: 28 mM solution, 300-340 nm; for average absorption, corrected for blanks: 1 mMolar solution, 230-260 nm
Experimental: Specifically, the preferred embodiment of this “pyruvated” Ringer's solution for use in NMR, stability, and subsequent biological studies is shown in Table 2.
Following the procedural recommendations for analysis of Margolis et al. (1986) with respect to scanning times and frequencies on a 400 MHz spectrometer operating in pulse. […] The ultraviolet absorptions of these solutions were also measured periodically over the 230-260 nm range and 300-340 nm span, where changes in enol formation become evident, and provided confirmatory evidence about the distinctly different salvation properties of pyruvate ester analogs in comparison to pyruvate salts applied in the various methods of prior art.
The experimental sequence in which to establish the greater utility of the pyruvate derivatives in this invention follows along the same lines as the comparative spectral experiments just described.
When 28 mM solutions were examined in a similar manner at 300-340 nm, the absorbance of pyruvate remained unchanged before and after calcium addition at a value of 0.03, while the ethyl pyruvate solutions become noticeably straw colored to the naked eye, rising in absorbance from 0.07 to 0.85. The yellow coloration and increases in spectrophotometric absorption in the ultraviolet region confirms the formation of a 1,3-conjugated ketone system, as would result from the enolization of ethylpyruvate under conditions which appear not to enolize pyruvic acid.

[3] = concentrations of 1 Mol/liter or less, standing for 48 hrs; cited from earlier work
[4] = I60 (after 60 minutes of ischemia)
[5] = R60 (after 60 minutes of reperfusion)

Row | absorbance ([2]; after calcium addition) | absorbance ([2]; before calcium addition) | average absorption, corrected for blanks ([2]; absence of calcium, pH 7.2) | average absorption, corrected for blanks ([2]; after addition of calcium) | Compound | mucosal thickness (MT) ([1]; Baseline) [μ] | villous height (VH) ([1]; Baseline) [μ] | mucosal injury score ([1]; Chiu grade 0-5 (Table 3), FIG. 5) | cytoprotection as judged by the extent of permeability increase ([1]; FIG. 4) | mucosal thickness (MT) [1, 4] [μ] | villous height (VH) [1, 4] [μ] | mucosal thickness (MT) [1, 5] [μ] | villous height (VH) [1, 5] [μ] | villous height and mucosal thickness ([1]; during both ischemia and reperfusion, p<0.01) | mucosal permeability (FITC-dextran, everted gut sac) ([1]; FIG. 4) | stability of aqueous solution ([2]; in the presence of calcium salts (Ringer's solution)) | dimer (4-hydroxy-4-methyl-2-ketoglutaric acid) formed [3] | hydrate formed [3]
1 | 0.85 | 0.07 | 0.2 | 0.41 | CCOC(=O)C(C)=O [Ethyl pyruvate (4), ethyl pyruvate] | 583 | 486 ± 12 | significant diminution | significant trend towards effecting earlier and greater cytoprotection | 466 | 381 ± 24 | 352 | 296 ± 26 | significantly maintained | significantly decreased | more stable aqueous solution than sodium pyruvate |  | 
2 |  |  |  |  | CC(=O)C(=O)[O-].[Na+] [Na Pyruvate (1), sodium pyruvate] |  |  |  |  |  |  |  |  |  | significantly decreased |  | 20-25% | 6-10%
3 |  |  | 0.15 |  | CC(=O)C(=O)O [pyruvic acid, reference compound] |  |  |  |  |  |  |  |  |  |  |  |  | 
4 |  |  |  |  | Lactate [reference compound] | 553 ± 34 | 470 ± 30 |  |  | 298 ± 32 | 244 ± 20 | 141 ± 22 | 130 ± 25 |  |  |  |  | 
